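How tested: cells in 96-well plates exposed to compound for 48 hours at five concentrations. GI50 is the concentration that inhibits growth by half.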 The source made the active and inactive calls. Rule as the data show it: active = GI50 up to about 1.1 µM and inactive = higher.
How the values were obtained:
Assay in all cases: NCI-60 cell line screen, 48 h
[1] = system: 786-0
[2] = system: ACHN
[3] = system: HCT-116
[4] = system: HCT-15
[5] = system: HOP-62
[6] = system: LOX IMVI
[7] = system: MDA-N
[8] = system: NCI-H226
[9] = system: NCI-H23
[10] = system: NCI-H460
[11] = system: NCI-H522
[12] = system: OVCAR-3
[13] = system: OVCAR-5
[14] = system: PC-3
[15] = system: RPMI-8226
[16] = system: SF-295
[17] = system: SF-539
[18] = system: SR
[19] = system: SW-620
[20] = system: U-251

Compound	GI50 [1]	GI50 [2]	GI50 [3]	GI50 [4] [µM]	GI50 [5]	GI50 [6]	GI50 [7]	GI50 [8]	GI50 [9]	GI50 [10]	GI50 [11]	GI50 [12]	GI50 [13]	GI50 [14]	GI50 [15]	GI50 [16]	GI50 [17]	GI50 [18]	GI50 [19]	GI50 [20]
N=C(N)SCc1ccc(Cl)cc1Cl.O=[N+]([O-])c1c(O)c(Cl)cc(Cl)c1Cl	11.7 µM (inactive)	10.7 µM (inactive)	11.8 µM (inactive)	13.3	14.5 µM (inactive)	16.7 µM (inactive)	7.46 µM (inactive)	20.5 µM (inactive)	13.4 µM (inactive)	10.6 µM (inactive)	10.3 µM (inactive)	13.1 µM (inactive)	16.3 µM (inactive)	11.9 µM (inactive)	1.81 µM (inactive)	13.5 µM (inactive)	12.9 µM (inactive)	5.21 µM (inactive)	15.2 µM (inactive)	14.8 µM (inactive)
O=C(O)CC1(C(=O)O)CCCCC1	> 100 µM (inactive)	> 100 µM (inactive)	> 100 µM (inactive)	> 100	> 100 µM (inactive)	> 100 µM (inactive)	> 100 µM (inactive)	> 100 µM (inactive)	> 100 µM (inactive)	> 100 µM (inactive)	> 100 µM (inactive)	> 100 µM (inactive)	> 100 µM (inactive)	> 100 µM (inactive)	> 100 µM (inactive)	> 100 µM (inactive)	> 100 µM (inactive)	> 100 µM (inactive)	> 100 µM (inactive)	> 100 µM (inactive)
O=C(c1ccccc1)c1c(C(F)(F)F)[n+]([O-])c2cc(Cl)c(Cl)cc2[n+]1[O-]	0.502 µM (active)	0.764 µM (active)	0.528 µM (active)	0.535	0.357 µM (active)	0.41 µM (active)	1.79 µM (inactive)	3.02 µM (inactive)	0.565 µM (active)	1.15 µM (inactive)	0.557 µM (active)	0.403 µM (active)	1.69 µM (inactive)	1.18 µM (inactive)	0.373 µM (active)	3.21 µM (inactive)	1.5 µM (inactive)	0.175 µM (active)	0.619 µM (active)	1.23 µM (inactive)
COCn1c(C)c(C)c2c(=O)oc(C)nc21	> 100 µM (inactive)	> 100 µM (inactive)	> 100 µM (inactive)	> 100	70.8 µM (inactive)	> 100 µM (inactive)	> 100 µM (inactive)	> 100 µM (inactive)	> 100 µM (inactive)	> 100 µM (inactive)	94.2 µM (inactive)		> 100 µM (inactive)	> 100 µM (inactive)	> 100 µM (inactive)	> 100 µM (inactive)	> 100 µM (inactive)	> 100 µM (inactive)	> 100 µM (inactive)	> 100 µM (inactive)
C/C(=N\NC(=S)Nc1ccc(C)cc1)c1nc2cccnc2[nH]1	1.6 µM (inactive)	1.44 µM (inactive)	1.6 µM (inactive)	2.86	3.17 µM (inactive)	1.41 µM (inactive)	4.63 µM (inactive)	1.78 µM (inactive)	2.65 µM (inactive)	1.32 µM (inactive)	0.986 µM (active)	0.483 µM (active)	1.95 µM (inactive)	1.73 µM (inactive)	3.01 µM (inactive)	3.07 µM (inactive)	1.14 µM (inactive)	0.849 µM (active)	3.57 µM (inactive)	1.45 µM (inactive)
COC(=O)C1Cc2cc3c(cc2C1=O)CCC3 (stereo unspecified)	> 100 µM (inactive)	> 100 µM (inactive)	> 100 µM (inactive)	> 100	> 100 µM (inactive)	> 100 µM (inactive)	> 100 µM (inactive)	> 100 µM (inactive)	> 100 µM (inactive)	> 100 µM (inactive)	> 100 µM (inactive)	> 100 µM (inactive)	> 100 µM (inactive)	> 100 µM (inactive)	> 100 µM (inactive)	> 100 µM (inactive)	> 100 µM (inactive)	> 100 µM (inactive)	> 100 µM (inactive)	> 100 µM (inactive)
CSC1=NS(=O)(=O)c2cc(C(=O)NN(C)C(=O)c3cc4c(cc3Cl)SC(SC)=NS4(=O)=O)c(Cl)cc2S1	> 10 µM (inactive)	> 10 µM (inactive)	> 10 µM (inactive)	> 10	> 10 µM (inactive)	> 10 µM (inactive)	> 10 µM (inactive)	> 10 µM (inactive)	> 10 µM (inactive)	> 10 µM (inactive)	> 10 µM (inactive)	> 10 µM (inactive)	> 10 µM (inactive)	> 10 µM (inactive)	> 10 µM (inactive)	> 10 µM (inactive)	> 10 µM (inactive)	> 10 µM (inactive)	> 10 µM (inactive)	> 10 µM (inactive)
N#Cc1c(O)c(/C=N/c2ccc(Cl)cc2)c(=O)n2c1[nH]c1ccccc12	> 100 µM (inactive)	> 100 µM (inactive)	> 100 µM (inactive)	36.5	> 100 µM (inactive)	> 100 µM (inactive)	> 100 µM (inactive)	> 100 µM (inactive)	> 100 µM (inactive)	> 100 µM (inactive)	> 100 µM (inactive)	> 100 µM (inactive)	> 100 µM (inactive)	> 100 µM (inactive)	> 100 µM (inactive)	> 100 µM (inactive)	> 100 µM (inactive)	> 100 µM (inactive)	> 100 µM (inactive)	> 100 µM (inactive)
N#C/C(N)=C(\C#N)NC(=O)C(=O)N/C(C#N)=C(\N)C#N	> 100 µM (inactive)	> 100 µM (inactive)	> 100 µM (inactive)	> 100	> 100 µM (inactive)	> 100 µM (inactive)	> 100 µM (inactive)	> 100 µM (inactive)	> 100 µM (inactive)	> 100 µM (inactive)	> 100 µM (inactive)	13 µM (inactive)	> 100 µM (inactive)	> 100 µM (inactive)	> 100 µM (inactive)	57.8 µM (inactive)	> 100 µM (inactive)	58.2 µM (inactive)	> 100 µM (inactive)	> 100 µM (inactive)
Cc1cc(C)nc(NC(=S)Nc2ccc(Cl)cc2)c1	22.5 µM (inactive)		> 100 µM (inactive)	> 100	35.9 µM (inactive)	> 100 µM (inactive)	> 100 µM (inactive)	27.8 µM (inactive)		66.7 µM (inactive)	1.37 µM (inactive)	> 100 µM (inactive)	29.2 µM (inactive)	> 100 µM (inactive)	> 100 µM (inactive)	43.1 µM (inactive)	53.2 µM (inactive)	> 100 µM (inactive)	> 100 µM (inactive)	35.9 µM (inactive)
O=C(NC(N1CCN(c2cc3c(cc2F)c(=O)c(C(=O)O)cn3C2CC2)CC1)(C(F)(F)F)C(F)(F)F)c1ccccc1	45.2 µM (inactive)	35.8 µM (inactive)	34.1 µM (inactive)	22.1	38.5 µM (inactive)	33.9 µM (inactive)	39.6 µM (inactive)	34.1 µM (inactive)	25.9 µM (inactive)	32.1 µM (inactive)	17.7 µM (inactive)	43.5 µM (inactive)	26.7 µM (inactive)	45.1 µM (inactive)	27.7 µM (inactive)	40.6 µM (inactive)	22 µM (inactive)	29.8 µM (inactive)	40.5 µM (inactive)	37.3 µM (inactive)
NCCCCC(NC(=O)C(N)Cc1ccc(O)cn1)C(=O)O (stereo unspecified)	> 100 µM (inactive)	> 100 µM (inactive)	> 100 µM (inactive)	> 100	> 100 µM (inactive)	> 100 µM (inactive)	> 100 µM (inactive)	> 100 µM (inactive)	> 100 µM (inactive)	> 100 µM (inactive)	> 100 µM (inactive)	> 100 µM (inactive)	> 100 µM (inactive)	> 100 µM (inactive)	> 100 µM (inactive)	> 100 µM (inactive)	> 100 µM (inactive)	> 100 µM (inactive)	> 100 µM (inactive)	> 100 µM (inactive)
CC(CC(=O)N1C2CC3CCC2(CS1(=O)=O)C3(C)C)[Si](C)(C)C (stereo unspecified)	> 100 µM (inactive)	> 100 µM (inactive)	> 100 µM (inactive)	> 100	> 100 µM (inactive)	> 100 µM (inactive)	> 100 µM (inactive)	> 100 µM (inactive)	> 100 µM (inactive)	> 100 µM (inactive)	> 100 µM (inactive)	> 100 µM (inactive)		61.5 µM (inactive)	> 100 µM (inactive)	> 100 µM (inactive)	> 100 µM (inactive)	> 100 µM (inactive)	> 100 µM (inactive)	> 100 µM (inactive)
c1cc2c(c(NC3=NCCO3)c1)CCC2	> 100 µM (inactive)	> 100 µM (inactive)	> 100 µM (inactive)	> 100	> 100 µM (inactive)	> 100 µM (inactive)	84.5 µM (inactive)	> 100 µM (inactive)	> 100 µM (inactive)	> 100 µM (inactive)	> 100 µM (inactive)	> 100 µM (inactive)	> 100 µM (inactive)	67 µM (inactive)	> 100 µM (inactive)	> 100 µM (inactive)	> 100 µM (inactive)	86.5 µM (inactive)	> 100 µM (inactive)	> 100 µM (inactive)

From ChEMBL document CHEMBL1201862, “PubChem BioAssay data set” (2004)
